Results from the OPERA property sets (Mansouri et al. 2018).

| SMILES | logP |
| --- | --- |
| CCCNC(=O)c1cc2ccccc2[nH]1 | 2.8 |
| O=[N+]([O-])c1cncnc1 | -0.05 |
| CCOC(=O)c1cc2ccccc2o1 | 3.05 |
| CCNC(=O)c1cc2ccccc2o1 | 2.22 |
| CNC(=O)c1cc2ccccc2o1 | 1.85 |
| CCCNC(=O)c1cc2ccccc2o1 | 2.65 |
| CNC(=O)c1cc2ccccc2[nH]1 | 1.9 |
| CNC(=O)c1c[nH]c2ccccc12 | 1.25 |
| CCNC(=O)c1cc2ccccc2[nH]1 | 2.32 |
| CCNC(=O)c1c[nH]c2ccccc12 | 1.62 |

The next lines start with the values.

| logP | SMILES |
| --- | --- |
| 0.8 | CCNC(=O)c1ccc[nH]1 |
| 0.71 | CNC(=O)c1cccn1C |
| 1.09 | CCNC(=O)c1cccn1C |
| 1.25 | CCCNC(=O)c1ccc[nH]1 |
| 3.22 | CCOC(=O)c1cc2ccccc2[nH]1 |
| 1.63 | CCCNC(=O)c1cccn1C |
| 0.45 | Cn1cccc1C(N)=O |
| 0.09 | NC(=O)c1ccc[nH]1 |
| 0.42 | CNC(=O)c1ccc[nH]1 |
| 1.2 | CCCNC(=O)c1ccoc1 |
| 1.73 | CCOC(=O)c1ccc[nH]1 |
| 1.8 | COC(=O)c1cccn1C |
